Reference: patent publication US6340689B1 (priority 1999, dated 2002)
≈ marks a conversion by molar mass, not a printed value.

How the values were obtained:
[1] = tested on: L. pneumophila serogroup 5; test: microbe, parasite or virus in culture; format: cell-based; conditions: Legionella pneumophila; for MIC: 48 h, read-out: MIC Range
Other Legionella spp. = test: microbe, parasite or virus in culture; format: cell-based; conditions: for MIC: 48 h, read-out: MIC Range
[2] = tested on: L. pneumophila serogroup 6; test: microbe, parasite or virus in culture; format: cell-based; conditions: Legionella pneumophila; for MIC: 48 h, read-out: MIC Range
[3] = tested on: Erythromycin-susceptible L. pneumophila; format: cell-based, Legionella pneumophila; conditions: Erythromycin-susceptible L. pneumophila (n = 15); 4 × MIC; mean ± SD
[4] = tested on: L. pneumophila serogroup 4; test: microbe, parasite or virus in culture; format: cell-based; conditions: Legionella pneumophila; for MIC: 48 h, read-out: MIC Range
[5] = tested on: L. pneumophila serogroup 7; test: microbe, parasite or virus in culture; format: cell-based; conditions: Legionella pneumophila; for MIC: 48 h, read-out: MIC Range
L. longbeacheae = test: organism not typed; format: cell-based; conditions: for MIC: 48 h, read-out: MIC Range
L. dumoffii = test: organism not typed; format: cell-based; conditions: for MIC: 48 h, read-out: MIC Range
[6] = tested on: L. pneumophila serogroup 1; test: microbe, parasite or virus in culture; format: cell-based, Legionella pneumophila; conditions: Legionella pneumophila; for MIC: 48 h, read-out: MIC Range; for MIC90: L. pneumophila serogroup 1 (n = 85)
L. micadadei = test: organism not typed; format: cell-based, L. micdadei; conditions: for MIC: 48 h, read-out: MIC Range
[7] = tested on: L. pneumophila serogroup 8, 9; test: microbe, parasite or virus in culture; format: cell-based; conditions: Legionella pneumophila; for MIC: 48 h, read-out: MIC Range
[8] = tested on: L. pneumophila serogroup 2; test: microbe, parasite or virus in culture; format: cell-based; conditions: Legionella pneumophila; for MIC: 48 h, read-out: MIC Range
[9] = tested on: L. pneumophila serogroup 3; test: microbe, parasite or virus in culture; format: cell-based; conditions: Legionella pneumophila; for MIC: 48 h, read-out: MIC Range
[10] = tested on: Erythromycin-susceptible Legionella spp. other than L. pneumophila; format: cell-based; conditions: Erythromycin-susceptible Legionella spp. (n = 13); 4 × MIC; mean ± SD

SMILES	MIC50 [1]	MIC90 [1]	MIC [1]	MIC50 (Other Legionella spp.)	MIC90 (Other Legionella spp.)	MIC (Other Legionella spp.)	MIC50 [2]	MIC90 [2]	MIC [2]	Mean PAE [3]	MIC50 [4]	MIC90 [4]	MIC [4]	MIC50 [5]	MIC90 [5]	MIC [5]	MIC50 (L. longbeacheae)	MIC90 (L. longbeacheae)	MIC (L. longbeacheae)	MIC50 (L. dumoffii)	further results
CC[C@H]1OC(=O)[C@H](C)[C@@H](O[C@H]2C[C@@](C)(OC)[C@@H](O)[C@H](C)O2)[C@H](C)[C@@H](O[C@@H]2O[C@H](C)C[C@H](N(C)C)[C@H]2O)[C@](C)(O)C[C@@H](C)CN(C)[C@H](C)[C@@H](O)[C@]1(C)O [Azithromycin]	0.03 mg/L (≈ 0.0401 µM)	0.25 mg/L (≈ 0.334 µM)	0.008 to 0.5 mg/L (≈ 0.0107 to 0.668 µM)	0.12 mg/L (≈ 0.16 µM)	0.5 mg/L (≈ 0.668 µM)	0.016 to 0.5 mg/L (≈ 0.0214 to 0.668 µM)	0.06 mg/L (≈ 0.0801 µM)	0.12 mg/L (≈ 0.16 µM)	0.016 to 0.25 mg/L (≈ 0.0214 to 0.334 µM)	2.91 ± 3 h	0.12 mg/L (≈ 0.16 µM)	0.12 mg/L (≈ 0.16 µM)	0.008 to 0.25 mg/L (≈ 0.0107 to 0.334 µM)	0.06 mg/L (≈ 0.0801 µM)	0.06 mg/L (≈ 0.0801 µM)	0.06 mg/L (≈ 0.0801 µM)	0.12 mg/L (≈ 0.16 µM)	0.25 mg/L (≈ 0.334 µM)	0.016 to 0.25 mg/L (≈ 0.0214 to 0.334 µM)	0.12 mg/L (≈ 0.16 µM)	MIC90 (L. dumoffii): 0.25 mg/L (≈ 0.334 µM); MIC (L. dumoffii): 0.12 to 0.25 mg/L (≈ 0.16 to 0.334 µM); MIC50 [6]: 0.06 mg/L (≈ 0.0801 µM); MIC [6]: 0.008 to 1 mg/L (≈ 0.0107 to 1.34 µM); MIC90 [6]: 0.5 mg/L (≈ 0.668 µM); MIC50 (L. micadadei): 0.25 mg/L (≈ 0.334 µM); MIC90 (L. micadadei): 0.25 mg/L (≈ 0.334 µM); MIC (L. micadadei): 0.016 to 0.25 mg/L (≈ 0.0214 to 0.334 µM); MIC50 [7]: 0.06 mg/L (≈ 0.0801 µM); MIC90 [7]: 0.06 mg/L (≈ 0.0801 µM); MIC [7]: 0.06 mg/L (≈ 0.0801 µM); MIC50 [8]: 0.06 mg/L (≈ 0.0801 µM); MIC90 [8]: 0.12 mg/L (≈ 0.16 µM); MIC [8]: 0.008 to 0.12 mg/L (≈ 0.0107 to 0.16 µM); MIC50 [9]: 0.12 mg/L (≈ 0.16 µM); MIC90 [9]: 0.25 mg/L (≈ 0.334 µM); MIC [9]: 0.016 to 0.25 mg/L (≈ 0.0214 to 0.334 µM); Mean PAE [10]: 1.86 ± 2 h
CC[C@H]1OC(=O)[C@H](C)[C@@H](O[C@H]2C[C@@](C)(OC)[C@@H](O)[C@H](C)O2)[C@H](C)[C@@H](O[C@@H]2O[C@H](C)C[C@H](N(C)C)[C@H]2O)[C@](C)(OC)C[C@@H](C)C(=O)[C@H](C)[C@@H](O)[C@]1(C)O [Clarithromycin]	0.03 mg/L (≈ 0.0401 µM)	0.06 mg/L (≈ 0.0802 µM)	0.03 to 0.06 mg/L (≈ 0.0401 to 0.0802 µM)	0.03 mg/L (≈ 0.0401 µM)	0.12 mg/L (≈ 0.16 µM)	0.004 to 0.12 mg/L (≈ 0.00535 to 0.16 µM)	0.016 mg/L (≈ 0.0214 µM)	0.06 mg/L (≈ 0.0802 µM)	0.004 to 0.06 mg/L (≈ 0.00535 to 0.0802 µM)	0.72 ± 2 h	0.03 mg/L (≈ 0.0401 µM)	0.06 mg/L (≈ 0.0802 µM)	0.004 to 0.06 mg/L (≈ 0.00535 to 0.0802 µM)	0.016 mg/L (≈ 0.0214 µM)	0.06 mg/L (≈ 0.0802 µM)	0.016 to 0.06 mg/L (≈ 0.0214 to 0.0802 µM)	0.06 mg/L (≈ 0.0802 µM)	0.06 mg/L (≈ 0.0802 µM)	0.008 to 0.06 mg/L (≈ 0.0107 to 0.0802 µM)	0.03 mg/L (≈ 0.0401 µM)	MIC90 (L. dumoffii): 0.06 mg/L (≈ 0.0802 µM); MIC (L. dumoffii): 0.03 to 0.06 mg/L (≈ 0.0401 to 0.0802 µM); MIC50 [6]: 0.06 mg/L (≈ 0.0802 µM); MIC [6]: 0.004 to 0.12 mg/L (≈ 0.00535 to 0.16 µM); MIC90 [6]: 0.06 mg/L (≈ 0.0802 µM); MIC50 (L. micadadei): 0.06 mg/L (≈ 0.0802 µM); MIC90 (L. micadadei): 0.06 mg/L (≈ 0.0802 µM); MIC (L. micadadei): 0.03 to 0.12 mg/L (≈ 0.0401 to 0.16 µM); MIC50 [7]: 0.06 mg/L (≈ 0.0802 µM); MIC90 [7]: 0.06 mg/L (≈ 0.0802 µM); MIC [7]: 0.06 mg/L (≈ 0.0802 µM); MIC50 [8]: 0.03 mg/L (≈ 0.0401 µM); MIC90 [8]: 0.06 mg/L (≈ 0.0802 µM); MIC [8]: 0.004 to 0.06 mg/L (≈ 0.00535 to 0.0802 µM); MIC50 [9]: 0.03 mg/L (≈ 0.0401 µM); MIC90 [9]: 0.06 mg/L (≈ 0.0802 µM); MIC [9]: 0.016 to 0.06 mg/L (≈ 0.0214 to 0.0802 µM); Mean PAE [10]: 0.98 ± 2 h
CC[C@H]1OC(=O)[C@H](C)[C@@H](O[C@H]2C[C@@](C)(OC)[C@@H](O)[C@H](C)O2)[C@H](C)[C@@H](O[C@@H]2O[C@H](C)C[C@H](N(C)C)[C@H]2O)[C@](C)(O)C[C@@H](C)C(=O)[C@H](C)[C@@H](O)[C@]1(C)O [Erythromycin]	0.25 mg/L (≈ 0.341 µM)	0.5 mg/L (≈ 0.681 µM)	0.06 to 1 mg/L (≈ 0.0818 to 1.36 µM)	0.5 mg/L (≈ 0.681 µM)	1 mg/L (≈ 1.36 µM)	0.016 to 1 mg/L (≈ 0.0218 to 1.36 µM)	0.12 mg/L (≈ 0.164 µM)	0.25 mg/L (≈ 0.341 µM)	0.008 to 0.25 mg/L (≈ 0.0109 to 0.341 µM)	0.93 ± 1 h	0.5 mg/L (≈ 0.681 µM)	0.5 mg/L (≈ 0.681 µM)	0.016 to 0.5 mg/L (≈ 0.0218 to 0.681 µM)	0.12 mg/L (≈ 0.164 µM)	0.5 mg/L (≈ 0.681 µM)	0.12 to 0.5 mg/L (≈ 0.164 to 0.681 µM)	0.25 mg/L (≈ 0.341 µM)	0.5 mg/L (≈ 0.681 µM)	0.008 to 0.5 mg/L (≈ 0.0109 to 0.681 µM)	0.25 mg/L (≈ 0.341 µM)	MIC90 (L. dumoffii): 0.5 mg/L (≈ 0.681 µM); MIC (L. dumoffii): 0.25 to 0.5 mg/L (≈ 0.341 to 0.681 µM); MIC50 [6]: 0.25 mg/L (≈ 0.341 µM); MIC [6]: 0.03 to 1 mg/L (≈ 0.0409 to 1.36 µM); MIC90 [6]: 1 mg/L (≈ 1.36 µM); MIC50 (L. micadadei): 0.5 mg/L (≈ 0.681 µM); MIC90 (L. micadadei): 1 mg/L (≈ 1.36 µM); MIC (L. micadadei): 0.25 to 1 mg/L (≈ 0.341 to 1.36 µM); MIC50 [7]: 0.25 mg/L (≈ 0.341 µM); MIC90 [7]: 0.25 mg/L (≈ 0.341 µM); MIC [7]: 0.25 mg/L (≈ 0.341 µM); MIC50 [8]: 0.25 mg/L (≈ 0.341 µM); MIC90 [8]: 0.25 mg/L (≈ 0.341 µM); MIC [8]: 0.008 to 0.5 mg/L (≈ 0.0109 to 0.681 µM); MIC50 [9]: 0.25 mg/L (≈ 0.341 µM); MIC90 [9]: 0.5 mg/L (≈ 0.681 µM); MIC [9]: 0.06 to 0.5 mg/L (≈ 0.0818 to 0.681 µM); Mean PAE [10]: 2.06 ± 2 h
